Data on ten molecules can be found in PubChem BioAssay (NCI).

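Step 1: Grow cells in 96-well plates. Step 2: Expose to compound for 48 hours at 5 concentrations. Step 3: Interpolate endpoints linearly; if unreached, use highest concentration. TGI: concentration producing complete growth inhibition.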 Bounds are passed on as bounds.

Experiment in all cases: NCI anticancer screen, dose series, 48 h
The subject of assay [1] is K-562 leukemia.
In assay [2] the test system is NCI/ADR-RES ovarian.
Assay [3] concerns KM12 colon.
Assay [4] deals with OVCAR-3 ovarian.
Assay [5] has as its system CCRF-CEM leukemia.
Assay [6] deals with SF-295 CNS.
For assay [7], the system named is OVCAR-4 ovarian.
In assay [8] the test system is HL-60(TB) leukemia.
Assay [9] concerns SK-MEL-2 melanoma.
Assay [10] deals with HT29 colon.
The test system of assay [11] is SF-268 CNS.
Assay [12] deals with HCT-116 colon.
Assay [13] relates to SF-539 CNS.
Assay [14] has as its system NCI-H23 lung.
For assay [15], the system named is UO-31 renal.

With `CCOc1ccccc1NC(=O)C(=O)C(/C(=N/N)C(=O)OC)c1nc2ccc([N+](=O)[O-])cc2[nH]c1=O` (stereo not given), the TGI in assay [1], in [2], in assay [3], in [4], in assay [5] and in assay [6] was over 100 µM in each case. For the same molecule, the TGI in [7], in assay [8], in assay [9], in [10], in [11] and in assay [12] was over 100 µM throughout. This molecule also showed a TGI in [13] of over 100 µM.

`CC(C)=NNc1snnc1C(N)=O`: the TGI in assay [1], in assay [2], in assay [3], in [4], in assay [5] and in assay [6] was over 100 µM each time. Also, the TGI in assay [8], in [14], in assay [9], in assay [10], in assay [11] and in [12] was over 100 µM in each case. The TGI in [13] and in assay [15] was over 100 µM throughout.

As for `c1csc(-c2nccc3c2[nH]c2ccccc23)c1`, the TGI was found to be 63.8 µM in assay [1]; 54.8 µM in [2]; 34.4 µM in [3]; 49.4 µM in [4]; 51.5 µM in assay [5]; 34.9 µM in assay [6]. The TGI in [7] was found to be 55.1 µM; in assay [8] it was 55.9 µM; in assay [14], 38.2 µM; in assay [9], 41.8 µM; in assay [10] it was 29.3 µM; in assay [11], 56.7 µM. Besides, the TGI in [12] came to 31.8 µM; in assay [13], 32 µM.

With `CCOC(=O)c1nc2ccccc2nc1NCc1ccc(OC)c(OC)c1`, the TGI in assay [1], in [2], in assay [3], in assay [4], in assay [5] and in assay [6] was over 100 µM each time. Moreover, the TGI in assay [7], in assay [8], in assay [14], in assay [10], in [11] and in [12] was over 100 µM in each case. Further, the TGI in assay [13] and in assay [15] was over 100 µM each time.

On to `N#Cc1cc2c(cc1C#N)/C(=N\c1cccc(N)n1)N=C2Nc1cccc(N)n1`, for which the TGI in assay [1], in assay [2], in [3], in [4], in assay [5] and in [6] was over 100 µM throughout. Moreover, the TGI is over 100 µM in assay [8]; 40.1 µM in assay [14]; over 100 µM in assay [9]; 85.7 µM in assay [10]; 49.2 µM in assay [11]; 26.7 µM in assay [12]. Further, the TGI in assay [13] worked out at 43.2 µM; in [15], 47 µM.

With `C[C@@H](CC(=O)O)OC1OC(COC(=O)C(C)(C)C)C(OC(=O)C(C)(C)C)C(OC(=O)C(C)(C)C)C1OC(=O)C(C)(C)C` (stereo not given in full), the TGI in [1] is over 100 µM; in [2], over 100 µM; in assay [3] it was over 100 µM; in assay [4], over 100 µM; in [5], 55.9 µM; in [6] it was over 100 µM. Further, the TGI is 46.3 µM in assay [8]; 93.5 µM in assay [14]; over 100 µM in assay [9]; over 100 µM in [10]; over 100 µM in [11]; over 100 µM in assay [12]. For the same molecule, in assay [13], the TGI is over 100 µM.

Take `COc1cc2c(cc1OC)C1c3ccccc3CCN1CCC2` (stereo not given): the TGI in assay [1], in assay [2], in assay [3], in assay [4], in assay [5] and in assay [6] was over 100 µM each time. Further, the TGI in assay [8], in assay [10], in [11], in assay [12], in assay [13] and in assay [15] was over 100 µM in each case.

Take `CC(=O)OC1OC(c2ccoc2)C[C@@]12C1CCC3O[C@]3(C)[C@]1(C)[C@H](OC(C)=O)[C@H](OC(C)=O)[C@H]2C` (stereo not given in full): the TGI in assay [1], in [2], in assay [3], in assay [4], in assay [5] and in assay [6] was over 37.5 µM throughout. The TGI in [7], in assay [8], in assay [14], in assay [9], in [10] and in [12] was over 37.5 µM each time. In addition, the TGI in assay [13] and in [15] was over 37.5 µM throughout.

As for `CO/N=C(/C)c1cccc(Nc2nc3ccc(Cl)cc3c3[nH]c4ccccc4c23)c1`, the TGI in [1] was 34.6 µM; in assay [2] it was 33 µM; in assay [3], 14.6 µM; in [4] it was 18.5 µM; in assay [5], over 100 µM; in assay [6], 15.3 µM. In addition, the TGI in [8] was found to be 32 µM; in assay [14] it was 28.5 µM; in assay [9], 26.9 µM; in [11] it was 29.5 µM; in assay [12] it was 14.7 µM; in assay [13], 30.1 µM. The same molecule displayed a TGI in assay [15] of 21.7 µM.

Consider `O/N=C(/C(Cl)=C(Cl)Cl)C(Cl)Cl`, for which the TGI in [1] was 38 µM; in assay [2] it was 73 µM; in [3], 47.4 µM; in assay [4], 38.6 µM; in assay [5], 36.7 µM; in assay [6], 35.8 µM. The TGI in assay [7] was determined as 30.3 µM; in assay [8], 26.3 µM; in [14], 30.7 µM; in [10] it was 30.3 µM; in assay [11] it was 36.3 µM; in assay [12], 34.8 µM. Besides, the TGI in [13] was 44.9 µM; in assay [15] it was 49 µM.
